What was measured:
calcineurin = experiment: Calcineurin phosphatase assay in T cell extracts (okadaic acid resistant, EGTA-sensitive phosphatase activity); assay type: biochemical, mouse
Experimental: Spleen and lymph nodes were harvested from wild type and mutant mice and were dispersed into single cell suspension. Red blood cells were removed by lysis. The final concentrations were adjusted to 1.5-2.0×10^8 cells suspended in 2 ml of PBS containing 5% fetal calf serum and 4 mM EDTA. The cell suspensions were enriched for T cells using Mouse T Cell Enrichment Column (R&D Systems). T cells were then lysed with lysis buffer containing 50 mM Tris-HCl, pH 7.5, 15% glycerol, 0.1 mM EGTA, 1 mM EDTA, 0.5 mM DTT, […] PMSF, 50 μg/ml soybean trypsin inhibitor, 5 μg/ml aprotinin, 5 μg/ml leupeptin. Aliquots of 8×10^6 cells per 50 μl of lysis buffer were frozen until further analysis.
The phosphatase assay is a modified version of a previously described procedure (Manalan and Klee, 1983; Liu, 1991). The reaction mixture (total volume 60 μl) contained 50 mM MES (pH6.0), 100 mM NaCl, 6 mM Mg(OAc)2, […], […] (Fraction V), […] okadaic acid (Calbiochem), […] [^33P] RII peptide (600 cpm/pmole), and T cell or brain extract. […] of the terminated reaction mixture was applied per well, washed and counted in a Top-Count scintillation counter (Packard Instrument Co.). […]
Residual calcineurin activity, (i.e., okadaic acid resistant and EGTA-sensitive phosphatase activity) was measured in the same CNAα^−/− T cell extracts (Martin and Wiederrecht, in press). […]

T cells = experiment: Mitogenic stimulation of T cells: proliferation and IL-2 and IL-4 production, drug sensitivity; assay type: cell-based, mouse
Excerpt: We tested the responses of the wild type and mutant T cells to mitogenic stimulation with phorbol 12-myristate 13 acetate (PMA) plus ionomycin, concanavalin A (ConA), and anti-CD3ε antibodies. All three mitogens induced the CNAα^−/− T cells to proliferate as rapidly as the wild type T-cells. Further, stimulated mutant and wild type T cells produced the same amounts of IL-2 and IL-4 and expressed normal level of IL-2 receptor on the surface. Thus, CNAα^−/− T cells appeared to be functional when stimulated by mitogens in vitro.
We tested the drug sensitivity of the CNAα^−/− T cells. […] CNA^−/− T cells were even more sensitive to these drugs than normal T cells, with a IC50 of 2-7 fold lower than that of the wild type T cells.

Substance: FK506
- inhibition of (residual) calcineurin phosphatase activity (calcineurin; CNAα−/− mutant T cell extracts): 90-95%
- inhibition of calcineurin phosphatase activity (calcineurin; wild type T cell extracts): 90-95%
- proliferation and lymphokine production of CNAα−/− T cells, inhibitability (T cells; CNAα−/− T cells): fully inhibitable
- inhibition of T cells as measured by proliferation and by IL-2 and IL-4 production (T cells; CNAα−/− and wild type T cells stimulated with PMA plus ionomycin, ConA, or αCD3ε antibody): inhibited

— patent US6444870B1, “Methods for assessing the role of calcineurin immunosuppression and neurotoxicity” (President and Fellows of Harvard College, priority 1995, dated 2002)
